From US12043630B2, “Polymorphic form of TG02 for treating cancer” (Cothera Bioscience, Inc., priority 2017, dated 2024)
Counter-ions that a name gives are not always drawn.

Tests used:
Type in all cases: physicochemical
[1] = Storage at elevated temperature and relative humidity, re-analysis by XRPD; conditions: for XRPD following storage at elevated temperatures and relative humidity: 28 days
Description: X-ray Powder Diffraction (XRPD or PXRD) diffractograms were collected on a Bruker AXS C2 GADDS, Bruker AXS DB Advance, PANalytical Empyrean, or similar diffractometer using Cu Kα radiation.
Proton NMR was consistent with the proposed structure. However, as the methylene protons of the citric acid overlapped with the D6-DMSO reference peak, the stoichiometric equivalence of citrate acid is slightly offset. […] Differential scanning calorimetry thermal events included a single broad endotherm at 204.5° C. (366.9 J/g).
Proton NMR analysis was consistent with the proposed structure, although there was overlap of the methylene protons of the citrate and the D6-DMSO reference peak. […] (327.7 J/g).
These additional peaks remained throughout the 28 days storage period. This may be caused by dehydration of the hydrate. Proton NMR analysis was consistent with the proposed structure, although there was overlap of the methylene protons of the citrate and the D6-DMSO reference peak. […] Differential scanning calorimetry consisted of a broad, asymmetrical endotherm between 25-115° C. (70.2 J/g) followed by a large endotherm at 186.0° C. (313.4 J/g), possibly due to the sample melt and dissolution of the salt. […] Water content was determined by Karl Fischer analysis to be 3.3%, equating to 1 molar equivalent of water.

[2] = Gravimetric Vapour Sorption (GVS); conditions: for Hygroscopicity by GVS analysis / GVS uptake: 25° C.; for GVS uptake: between 0-90% RH
Description: Sorption isotherms were obtained using a SMS DVS Intrinsic moisture sorption analyser, controlled by DVS Intrinsic Control software. The sample temperature was maintained at 25° C. by the instrument controls. The humidity was controlled by mixing streams of dry and wet nitrogen, with a total flow rate of 200 ml/min. The relative humidity was measured by a calibrated Rotronic probe (dynamic range of 1.0-100% RH), located near the sample. The weight change, (mass relaxation) of the sample as a function of % RH was constantly monitored by a microbalance (accuracy±0.005 mg).
Typically, 5-30 mg of sample was placed in a tared mesh stainless steel basket under ambient conditions. The sample was loaded and unloaded at 40% RH and 25° C. (typical room conditions). A moisture sorption isotherm was performed as outlined below (2 scans per complete cycle). The standard isotherm was performed at 25° C. at 10% RH intervals over a 0-90% RH range. Typically, a double cycle (4 scans) was carried out. Data analysis was carried out within Microsoft Excel using the DVS Analysis Suite.
The sample was recovered after completion of the isotherm and re-analysed by XRPD.

[3] = Thermodynamic Aqueous Solubility; conditions: aqueous media; for Thermodynamic solubility: 25° C., 24 hours
Description: Aqueous solubility was determined by suspending sufficient compound in relevant media to give a maximum final concentration of ≥10 mg/ml of the parent freeform of the compound. The suspension was equilibrated at 25° C., on a Heidolph plate shaker set to 750 rpm for 24 hours. The pH of the saturated solution was then measured and the suspension filtered through a glass fibre C filter (particle retention 1.2 μm) and diluted appropriately. Quantitation was by HPLC with reference to a standard solution of approximately 0.15 mg/ml in DMSO. Different volumes of the standard, diluted and undiluted sample solutions were injected. The solubility was calculated using the peak areas determined by integration of the peak found at the same retention time as the principal peak in the standard injection.

[4] = Slurry of mixed TG02 citrate polymorphs in solvents, XRPD of recovered solids (Method B); conditions: 4 days
Description: Method B: A homogeneous mixture of TG02 Form X (citrate), TG02 Citrate Pattern 1 of U.S. Pat. No. 9,120,815, and TG02 Citrate Pattern 2 of U.S. Pat. No. 9,120,815 was treated with solvent (20 vol.) and agitated for 4 days at different temperatures (5° C., 25° C., and 50° C.). The recovered solids were air dried and analysed by XRPD.

[5] = 40° C./75% RH, 25° C./97% RH and 60° C./ambient RH

For `CN1C/C=C/CCOc2cccc(c2)-c2ccnc(n2)Nc2cccc(c2)C1` [TG02 Citrate Pattern 2, (16E)-14-methyl-20-oxa-5,7,14,26-tetraazatetracyclo[19.3.1.1(2,6).1(8,12)]heptacosa-1(25),2(26),3,5,8(27),9,11,16,21,23-decaene], the “XRPD following storage at elevated temperatures and relative humidity” value ([1]; 40° C./75% RH and 25° C./97% RH) was “remained unchanged by XRPD”, the XRPD following storage ([1]; 60° C./ambient RH, peaks remained throughout 28 days) was “additional peaks being present in the XRPD diffractogram after 7 days” and the “XRPD following GVS analysis” value [2] was “remained unchanged by XRPD”. The “Hygroscopicity by GVS analysis” value [2] was “hygroscopic”, the GVS uptake [2] was 3.84% and the GVS maximum hysteresis ([2]; between 10-30% RH) was 1.4%. The “XRPD following thermodynamic solubility analysis” value [3] was “remained unchanged by XRPD” and the Thermodynamic solubility [3] was 230 µg/mL.

In the case of `CN1C/C=C/CCOc2cccc(c2)-c2ccnc(n2)Nc2cccc(c2)C1` [TG02 Citrate Pattern 1, (16E)-14-methyl-20-oxa-5,7,14,26-tetraazatetracyclo[19.3.1.1(2,6).1(8,12)]heptacosa-1(25),2(26),3,5,8(27),9,11,16,21,23-decaene], the “XRPD following storage at elevated temperatures and relative humidity” value [1, 5] is reported as “remained unchanged by XRPD”, the “XRPD following GVS analysis” value [2] is reported as “remained unchanged by XRPD” and the “Hygroscopicity by GVS analysis” value [2] is reported as “slightly-hygroscopic”. The GVS uptake [2] was 1.0%, the GVS maximum hysteresis ([2]; between 40-50% RH) was 0.2% and the “XRPD following thermodynamic solubility analysis” value [3] was “form change from TG02 Citrate Pattern 1 to TG02 Citrate Pattern 2”. For the same compound, the Thermodynamic solubility [3] was 330 µg/mL.

In the case of `CN1C/C=C/CCOc2cccc(c2)-c2ccnc(n2)Nc2cccc(c2)C1` [Form X (citrate), (16E)-14-methyl-20-oxa-5,7,14,26-tetraazatetracyclo[19.3.1.1(2,6).1(8,12)]heptacosa-1(25),2(26),3,5,8(27),9,11,16,21,23-decaene], the “XRPD following storage at elevated temperatures and relative humidity” value [1, 5] is reported as “remained unchanged by XRPD”, the “XRPD following GVS analysis” value [2] is reported as “remained unchanged by XRPD” and the “Hygroscopicity by GVS analysis” value [2] is reported as “non-hygroscopic”. For the same compound, the GVS uptake [2] was 0.13%, the GVS maximum hysteresis ([2]; between 40-60% RH) was 0.04% and the Thermodynamic solubility [3] was 640 µg/mL.

For `CN1C/C=C/CCOc2cccc(c2)-c2ccnc(n2)Nc2cccc(c2)C1` [TG02 (Citrate)], the “TG02 (Citrate) Polymorph recovered (XRPD)” value (“TG02” for short) ([4]; Acetone 20 vol., 5° C.) was “Form X”, the “TG02” value ([4]; Acetone 20 vol., 25° C.) was “Form X” and the “TG02” value ([4]; Acetone 20 vol., 50° C.) was “Form X”. The “TG02” value ([4]; Acetone:H2O (9:1) 20 vol., 5° C.) was “Pattern 2”, the “TG02” value ([4]; Acetone:H2O (9:1) 20 vol., 25° C.) was “Pattern 2” and the “TG02” value ([4]; Acetone:H2O (9:1) 20 vol., 50° C.) was “Pattern 2”. The “TG02” value ([4]; DCM:H2O (9:1) 20 vol., 5° C.) was “Pattern 2 + Form X”, the “TG02” value ([4]; DCM:H2O (9:1) 20 vol., 25° C.) was “Pattern 2” and the “TG02” value ([4]; DCM:H2O (9:1) 20 vol., 50° C.) was “Form X”. The “TG02” value ([4]; EtOAc 20 vol., 5° C.) was “Pattern 2 + Form X”, the “TG02” value ([4]; EtOAc 20 vol., 25° C.) was “Form X” and the “TG02” value ([4]; EtOAc 20 vol., 50° C.) was “Form X”. The “TG02” value ([4]; H2O 20 vol., 5° C.) was “Pattern 2”, the “TG02” value ([4]; H2O 20 vol., 25° C.) was “Pattern 2” and the “TG02” value ([4]; H2O 20 vol., 50° C.) was “Pattern 2”. The “TG02” value ([4]; IPA 20 vol., 5° C.) was “Form X”, the “TG02” value ([4]; IPA 20 vol., 25° C.) was “Form X” and the “TG02” value ([4]; IPA 20 vol., 50° C.) was “Form X”. For the same compound, the “TG02” value ([4]; TBME 20 vol., 5° C.) was “Pattern 2 + Form X”, the “TG02” value ([4]; TBME 20 vol., 25° C.) was “Pattern 2 + Form X” and the “TG02” value ([4]; TBME 20 vol., 50° C.) was “Form X”. For the same compound, the “TG02” value ([4]; THF:H2O (9:1) 20 vol., 5° C.) was “Pattern 2”, the “TG02” value ([4]; THF:H2O (9:1) 20 vol., 25° C.) was “Pattern 2” and the “TG02” value ([4]; THF:H2O (9:1) 20 vol., 50° C.) was “Pattern 2”.
